Experimental data: US8168651B2, “Protein kinase modulators” (Cylene Pharmaceuticals, Inc., priority 2008, dated 2012)

Columns and labels:
[1] = target: recombinant human CK2 (Homo sapiens (Human), UniProt P68400); test: CK2 assay (cell-free, 33P-ATP filter plate); type: biochemical; settings: 500 nM compound, cell-free assay; read-out: CK2: % inh 500 nM
[2] = tested on: HCT-116 human colorectal carcinoma cells; test: Cell-proliferation assay using Alamar Blue dye; type: cell-based; settings: Homo sapiens, HCT-116, second HCT-116 column (c8); read-out: HCT-116 (uM) cell proliferation modulatory activity;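 further: cells exposed to compound for about 4 days, then Alamar Blue added and dye fluorescence read after about 4 h, compared with medium-only control wells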
[3] = target: recombinant human PIM1 (Homo sapiens (Human), UniProt P11309); test: PIM-1 kinase activity in cell-free in vitro assay; type: biochemical; settings: cell-free assay; for inhibition at 0.5 µM: 500 nM compound, read-out: PIM-1: % inh 500 nM
Chain of recombinant human PIM1 (P11309 whole entry): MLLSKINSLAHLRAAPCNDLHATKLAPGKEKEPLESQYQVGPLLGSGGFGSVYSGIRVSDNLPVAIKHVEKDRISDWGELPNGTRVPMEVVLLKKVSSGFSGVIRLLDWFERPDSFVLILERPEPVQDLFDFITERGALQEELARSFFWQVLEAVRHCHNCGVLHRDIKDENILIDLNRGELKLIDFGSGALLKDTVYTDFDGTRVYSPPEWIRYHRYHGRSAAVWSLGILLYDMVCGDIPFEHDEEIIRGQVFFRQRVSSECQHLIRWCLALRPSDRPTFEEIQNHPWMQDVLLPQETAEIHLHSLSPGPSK

[4] = tested on: K-562; test: Cell proliferation modulatory activity, K-562; type: cell-based; settings: Homo sapiens, K562; K-562 cells
[5] = tested on: MV-4-11; test: Cell proliferation modulatory activity, MV-4-11; type: cell-based; settings: Homo sapiens, MV4-11; MV-4-11 cells

Chain of recombinant human CK2 (P68400 whole entry): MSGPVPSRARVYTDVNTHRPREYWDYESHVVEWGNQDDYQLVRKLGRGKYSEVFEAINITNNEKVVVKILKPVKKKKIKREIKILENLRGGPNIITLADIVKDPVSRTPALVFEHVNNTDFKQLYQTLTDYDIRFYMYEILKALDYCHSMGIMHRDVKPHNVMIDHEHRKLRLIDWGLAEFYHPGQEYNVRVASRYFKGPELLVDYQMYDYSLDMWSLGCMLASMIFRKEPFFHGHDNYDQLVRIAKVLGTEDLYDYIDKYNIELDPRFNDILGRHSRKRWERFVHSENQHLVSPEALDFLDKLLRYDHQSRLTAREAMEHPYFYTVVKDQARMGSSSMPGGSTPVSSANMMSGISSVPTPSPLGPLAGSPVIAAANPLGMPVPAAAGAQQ
Chain of recombinant human CK2 (P67870 whole entry partner): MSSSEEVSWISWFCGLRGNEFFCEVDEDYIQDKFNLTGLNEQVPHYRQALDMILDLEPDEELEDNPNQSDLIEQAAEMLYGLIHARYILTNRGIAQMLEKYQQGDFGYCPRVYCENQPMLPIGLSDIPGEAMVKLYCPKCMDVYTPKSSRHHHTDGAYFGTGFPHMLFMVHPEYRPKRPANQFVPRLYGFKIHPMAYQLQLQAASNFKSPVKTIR

inhibition at 0.5 µM [1] | IC50 [2] | inhibition at 0.5 µM [3] | IC50 [3] | IC50 [4] | IC50 [5] | SMILES
94.4% | > 10 µM | 54.9% | 0.344 µM | > 10 µM | > 10 µM | Cn1cnnc1-c1cccc(Nc2nc3cc(C(=O)O)ccc3c3cnccc23)c1
-34.7% | > 10 µM | 0.408% | – | > 10 µM | > 10 µM | N#Cc1ccc2c(c1)nc(N1CCC(N3CCOCC3)CC1)c1ccsc12
61.1% | > 10 µM | 59.9% | 0.634 µM | > 10 µM | > 10 µM | O=C(O)c1ccc2c(c1)nc(Nc1cccc(Cl)c1)c1cccnc12
27% | > 10 µM | 35% | – | > 10 µM | > 10 µM | CC(C)(C)OC(=O)N1CCCC1CNc1nc2cc(-c3nnn[nH]3)ccc2c2sccc12 (stereo not drawn)
-8.36% | > 10 µM | -26.3% | – | > 10 µM | > 10 µM | N#Cc1ccc2c(c1)nc(Nc1ccc(F)c(Cl)c1)c1cscc12
97.8% | > 10 µM | 76.7% | 0.365 µM | > 10 µM | 5.9 µM | O=C(O)c1ccc2c(c1)nc(Nc1ccc(Br)cc1)c1ccncc12
62.1% | > 10 µM | 81.5% | 0.119 µM | > 10 µM | > 10 µM | Cc1nccn1CCNc1nc2cc(-c3nnn[nH]3)ccc2c2sccc12
101% | > 10 µM | 93.9% | 0.089 µM | > 10 µM | 3.2 µM | O=C(O)c1ccc2c(c1)nc(Nc1ccc3ncccc3c1)c1ccncc12
101% | > 10 µM | 85% | 0.122 µM | > 10 µM | 3.64 µM | CCc1cccc(Nc2nc3cc(C(=O)O)ccc3c3cnccc23)c1
1.28% | > 10 µM | 83.9% | 0.161 µM | > 10 µM | > 10 µM | CN1CCC(Nc2nc3cc(-c4nnn[nH]4)ccc3c3sccc23)CC1
79.4% | > 10 µM | 54.9% | 0.649 µM | > 10 µM | > 10 µM | CCOCCNc1ncc2c(n1)c(N(C)c1ccccc1)nc1cc(C(=O)O)ccc12
101% | > 10 µM | 75.1% | 0.228 µM | > 10 µM | > 10 µM | O=C(O)c1ccc2c(c1)nc(Nc1ccc3cn[nH]c3c1)c1ccncc12
37.6% | > 10 µM | 30.6% | – | > 10 µM | 5.47 µM | Fc1ccc(Nc2nc3cc(-c4nnn[nH]4)ccc3c3cscc23)cc1
-76.9% | > 10 µM | -2.14% | – | > 10 µM | 6.04 µM | CN(C)CCNc1nc2cc(-c3nnc[nH]3)ccc2c2sccc12
98.1% | 9.82 µM | 32.6% | – | 0.11 µM | 3.28 µM | CCn1c2ccccc2c2cc(Nc3nc4cc(C(=O)O)ccc4c4cnccc34)ccc21
35% | > 10 µM | 37.8% | – | > 10 µM | > 10 µM | O=C(O)c1ccc2c(c1)nc(Nc1cccc(F)c1)c1cccnc12
52.6% | > 10 µM | 11.1% | – | > 10 µM | > 10 µM | Fc1cc(F)cc(Nc2nc3cc(-c4nnn[nH]4)ccc3c3cscc23)c1
-10.6% | > 10 µM | -3.1% | – | > 10 µM | > 10 µM | CN(C)CCNc1nc2cc(C(=O)NC3CCCCC3)ccc2c2sccc12
-30.5% | 3.37 µM | 23.8% | – | > 10 µM | 7.81 µM | CN(C)CCCNc1nc2cc(C#N)ccc2c2sccc12
27.1% | 3.15 µM | 70.1% | 0.416 µM | > 10 µM | 1.26 µM | N#Cc1ccc2c(c1)nc(NC1CCNCC1)c1ccsc12
-20.3% | 1.41 µM | -3.97% | – | 3.04 µM | 1.84 µM | CN(CCN1CCCC1)c1nc2cc(C#N)ccc2c2sccc12
-35% | > 10 µM | -30.9% | – | > 10 µM | > 10 µM | CC(C)(C)OC(=O)N1CCN(c2nc3cc(C#N)ccc3c3sccc23)CC1
101% | > 10 µM | 76% | 0.157 µM | > 10 µM | 8.87 µM | O=C(O)c1ccc2c(c1)nc(Nc1ccc3c(c1)OCO3)c1ccncc12
-6.67% | 5.66 µM | 35.7% | – | 6.94 µM | 3.36 µM | N#Cc1ccc2c(c1)nc(N1CCC(N3CCCC3)CC1)c1ccsc12

inhibition at 0.5 µM [1] | IC50 [2] | inhibition at 0.5 µM [3] | IC50 [3] | IC50 [4] | IC50 [5] | SMILES
-27.3% | 4.09 µM | 7.88% | – | > 10 µM | 9.33 µM | N#Cc1ccc2c(c1)nc(N1CCNCC1)c1ccsc12
93.1% | > 10 µM | 35.7% | – | > 10 µM | > 10 µM | O=C(O)c1ccc2c(c1)nc(Nc1cccc3ccccc13)c1ccncc12
9.21% | > 10 µM | -6.77% | – | > 10 µM | > 10 µM | N#Cc1ccc2c(c1)nc(Nc1ccc(F)cc1)c1cscc12
0.269% | > 10 µM | -14.8% | – | > 10 µM | > 10 µM | CN(C)CCNc1nc2cc(-c3nnn[nH]3)ccc2c2sc(-c3ccccc3)cc12
90.9% | > 10 µM | 24.2% | – | > 10 µM | 6.42 µM | COC(=O)c1ccc2c(c1)nc(NCCCOC(C)C)c1ccncc12
100% | > 10 µM | 81.8% | 0.321 µM | > 10 µM | > 10 µM | Nc1ccc(CCNc2nc3cc(C(=O)O)ccc3c3cnccc23)cc1
4.42% | > 10 µM | 12.2% | – | > 10 µM | > 10 µM | N#Cc1ccc2c(c1)nc(N1CCC[C@H]1C(N)=O)c1ccsc12
-2.47% | > 10 µM | 9.1% | – | > 10 µM | > 10 µM | N#Cc1ccc2c(c1)nc(N1CCC(N)C1)c1ccsc12 (stereo not drawn)
15.3% | > 10 µM | 56.8% | 0.602 µM | > 10 µM | > 10 µM | CN(c1ccccc1)c1nc2cc(C(=O)O)ccc2c2ccncc12
99.6% | > 10 µM | 74.5% | 0.094 µM | > 10 µM | > 10 µM | O=C(O)c1ccc2c(c1)nc(NCCn1cccc1)c1ccncc12
1.98% | > 10 µM | 2.44% | – | > 10 µM | > 10 µM | CC(C)(C)OC(=O)N1CCC(Nc2nc3cc(C#N)ccc3c3sccc23)CC1
51.1% | > 10 µM | 14.2% | – | > 10 µM | 5.71 µM | Fc1ccc(Nc2nc3cc(-c4nnn[nH]4)ccc3c3cscc23)cc1Cl
– | 10 µM | 31.9% | – | 0.769 µM | 0.165 µM | Cc1ccccc1Nc1nc2cc(C(=O)O)ccc2c2cnc(NC3CC3)nc12
96.6% | > 10 µM | 24.9% | – | > 10 µM | – | Cc1cc(Nc2nc3cc(C(=O)O)ccc3c3cnccc23)c2ccccc2n1
94.7% | > 10 µM | 34.9% | – | > 10 µM | – | CONc1nc2cc(C(=O)O)ccc2c2cnccc12
– | > 10 µM | – | 0.223 µM | > 10 µM | > 10 µM | CN(c1ccccc1)c1nc2cc(C(=O)O)ccc2c2cnc(N)nc12
96.2% | > 10 µM | 45.8% | – | > 10 µM | – | Cn1nc(C2CC2)cc1Nc1nc2cc(C(=O)O)ccc2c2cnccc12
– | > 10 µM | 97.1% | 0.287 µM | > 10 µM | > 10 µM | Cc1nccn1CCNc1nc2cc(C(=O)O)ccc2c2cnccc12
90.2% | > 10 µM | 9.63% | – | > 10 µM | – | O=C(O)c1ccc2c(c1)nc(N1CCc3ccccc31)c1ccncc12
94.8% | > 10 µM | 1.37% | – | > 10 µM | – | O=C(O)c1ccc2c(c1)nc(Nc1ccn[nH]1)c1ccncc12
40% | > 10 µM | 16.7% | – | > 10 µM | – | O=C(O)c1ccc2c(c1)nc(Nc1cccc(Cl)c1)c1ncccc12
– | > 10 µM | – | 0.7 µM | > 10 µM | 0.185 µM | O=C(O)c1ccc2c(c1)nc(NCCNc1ccccc1)c1ccncc12
84.7% | > 10 µM | 55.7% | 0.897 µM | > 10 µM | – | CON(C)c1nc2cc(C(=O)O)ccc2c2cnccc12
